Key:
[1] = biological target: T1, Protein deacetylase HDAC6 (Mus musculus) (UniProt Q9Z2V5); assay: Inhibition of HDAC6 in C57BL/6 mouse regulatory T cells assessed as increase in Treg-mediated suppression of anti-CD3 induced CD4+ cell division at 500 nM after 72 hrs in presence mitomycin-treated APC by CFSE dye based flow cytometric assay relative to control
T1 sequence (whole entry): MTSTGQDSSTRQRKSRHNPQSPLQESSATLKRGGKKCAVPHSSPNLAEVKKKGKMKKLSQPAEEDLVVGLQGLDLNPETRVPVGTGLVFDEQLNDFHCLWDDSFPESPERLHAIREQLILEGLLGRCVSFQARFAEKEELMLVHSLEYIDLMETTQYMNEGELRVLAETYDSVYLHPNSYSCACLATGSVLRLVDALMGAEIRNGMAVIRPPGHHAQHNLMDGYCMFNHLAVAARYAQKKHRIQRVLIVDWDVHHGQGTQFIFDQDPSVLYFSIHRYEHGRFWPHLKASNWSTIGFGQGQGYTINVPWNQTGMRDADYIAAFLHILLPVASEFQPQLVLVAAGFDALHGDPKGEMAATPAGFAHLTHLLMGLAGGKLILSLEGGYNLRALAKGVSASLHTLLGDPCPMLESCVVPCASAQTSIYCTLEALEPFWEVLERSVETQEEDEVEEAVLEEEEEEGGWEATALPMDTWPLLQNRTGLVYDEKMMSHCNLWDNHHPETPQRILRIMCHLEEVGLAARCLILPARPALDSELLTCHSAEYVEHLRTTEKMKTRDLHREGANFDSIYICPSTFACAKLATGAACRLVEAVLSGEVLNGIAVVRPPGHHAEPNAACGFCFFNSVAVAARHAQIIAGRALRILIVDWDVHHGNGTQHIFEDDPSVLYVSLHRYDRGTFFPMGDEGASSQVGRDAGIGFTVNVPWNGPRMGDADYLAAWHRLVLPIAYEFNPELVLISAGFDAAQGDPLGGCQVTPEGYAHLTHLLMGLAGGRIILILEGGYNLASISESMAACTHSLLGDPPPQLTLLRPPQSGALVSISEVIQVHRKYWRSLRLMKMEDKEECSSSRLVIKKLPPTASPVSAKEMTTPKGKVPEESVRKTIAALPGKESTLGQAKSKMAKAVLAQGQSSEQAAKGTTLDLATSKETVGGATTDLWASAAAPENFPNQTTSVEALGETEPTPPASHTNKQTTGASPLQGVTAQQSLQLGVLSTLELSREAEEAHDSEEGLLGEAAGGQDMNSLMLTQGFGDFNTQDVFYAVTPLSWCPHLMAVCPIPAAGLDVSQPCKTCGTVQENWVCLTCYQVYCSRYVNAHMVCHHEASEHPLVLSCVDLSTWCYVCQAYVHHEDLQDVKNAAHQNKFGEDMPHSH

[2] = Toxicity in C57BL/6 mouse assessed as effect on stool up to 50 mg/kg, ip administered for 5 days/week for two cycles and measured daily starting from day 1; assay type: organism-based; conditions: in vivo, 120 h
[3] = Toxicity in C57BL/6 mouse assessed as effect on platelet level at 30 mg/kg, ip administered for 5 days/week for two cycles and measured 60 mins post last dose by cell counter method relative to control; assay type: organism-based; conditions: in vivo, 1 h
[4] = Toxicity in C57BL/6 mouse assessed as effect on grooming up to 50 mg/kg, ip administered for 5 days/week for two cycles; assay type: organism-based; conditions: in vivo, 120 h
[5] = Toxicity in C57BL/6 mouse assessed as effect on body weight at 50 mg/kg, ip administered for 5 days/week for two cycles and measured every other day relative to control; assay type: organism-based; conditions: in vivo, 120 h
[6] = Toxicity in C57BL/6 mouse assessed as effect on body weight at 10 mg/kg, ip administered for 5 days/week for two cycles and measured every other day relative to control; assay type: organism-based; conditions: in vivo, 120 h
[7] = Stability in human plasma assessed as parent compound remaining at 100 uM after 4 hrs by LC-MS/MS analysis; assay type: ADME, cell-free; conditions: read-out: Stability
[8] = Selectivity ratio of IC50 for C-terminal GST-tagged human HDAC5 to IC50 for human N-terminal GST-tagged HDAC6 expressed in baculovirus infected sf9 insect cells
[9] = Selectivity ratio of IC50 for N-terminal GST-tagged human HDAC7 (518 to end residues) expressed in baculovirus infected sf9 insect cells to IC50 for human N-terminal GST-tagged HDAC6 expressed in baculovirus infected sf9 insect cells
[10] = Selectivity ratio of IC50 for N-terminal Flag-tagged human HDAC10 (2 to 631 residues) expressed in baculovirus infected sf9 insect cells to IC50 for human N-terminal GST-tagged HDAC6 expressed in baculovirus infected sf9 insect cells
[11] = test system: Mus musculus; assay: In vivo inhibition of HDAC in C57BL/6 mouse assessed as increase in acetylated-histone H3 level in spleen nuclear protein extracts at 30 mg/kg, ip measured after 60 mins by sandwich ELISA relative to control; assay type: organism-based; conditions: 1 h
[12] = Toxicity in C57BL/6 mouse assessed as effect on body temperature up to 50 mg/kg, ip administered for 5 days/week for two cycles and measured daily starting from day 1; assay type: organism-based; conditions: in vivo, 120 h
[13] = biological target: Cytochrome P450 3A4 (Homo sapiens, UniProt P08684)
Sequence of Cytochrome P450 3A4 (P08684 whole entry): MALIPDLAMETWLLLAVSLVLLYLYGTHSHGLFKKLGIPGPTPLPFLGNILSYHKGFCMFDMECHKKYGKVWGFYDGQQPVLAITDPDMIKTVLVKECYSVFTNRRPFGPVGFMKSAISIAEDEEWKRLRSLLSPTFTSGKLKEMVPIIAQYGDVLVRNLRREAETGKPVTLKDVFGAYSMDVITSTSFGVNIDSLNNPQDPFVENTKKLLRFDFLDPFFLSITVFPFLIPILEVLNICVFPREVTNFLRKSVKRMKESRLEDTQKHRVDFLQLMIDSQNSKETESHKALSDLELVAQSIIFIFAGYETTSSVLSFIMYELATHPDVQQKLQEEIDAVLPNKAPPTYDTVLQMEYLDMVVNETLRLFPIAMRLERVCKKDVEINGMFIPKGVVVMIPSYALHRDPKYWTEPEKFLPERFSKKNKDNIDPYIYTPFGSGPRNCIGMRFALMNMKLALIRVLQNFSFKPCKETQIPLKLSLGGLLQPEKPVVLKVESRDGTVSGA
Description: Inhibition of CYP3A4 in human liver microsomes using testosterone as substrate

[14] = Cmax in CD-1 mouse at 5.2 mg/kg, po measured within 6 hrs by LC-MS/MS analysis; assay type: ADME, organism-based; set-up: dose 5.2 mg/kg, route oral; conditions: in vivo
[15] = Selectivity ratio of IC50 for C-terminal His-tagged human HDAC9 (604 to 1066 residues) expressed in baculovirus infected sf9 insect cells to IC50 for human N-terminal GST-tagged HDAC6 expressed in baculovirus infected sf9 insect cells
[16] = Drug level in C57BL/6 mouse plasma at 30 mg/kg, ip measured after 24 hrs; assay type: ADME, organism-based; conditions: in vivo, BLD = below limit of detection
[17] = Stability in human liver S9 fraction assessed as parent compound remaining at 5 uM after 90 mins in presence of NADPH by LC-MS/MS analysis; assay type: ADME, subcellular; conditions: read-out: Stability
[18] = Inhibition of C57BL/6 mouse effector T cells proliferation at 1 uM after 72 hrs in absence of regulatory T cells by CFSE dye based flow cytometric assay relative to control
[19] = Total AUC in CD-1 mouse at 5.2 mg/kg, po measured within 6 hrs by LC-MS/MS analysis; assay type: ADME, organism-based; set-up: dose 5.2 mg/kg, route oral, time AUCmax; conditions: in vivo
[20] = Toxicity in C57BL/6 mouse assessed as effect on platelet level at 10 mg/kg, ip administered for 5 days/week for two cycles and measured 60 mins post last dose by cell counter method relative to control; assay type: organism-based; conditions: in vivo, 1 h
[21] = Toxicity in C57BL/6 mouse assessed as effect on postural changes up to 50 mg/kg, ip administered for 5 days/week for two cycles and measured daily starting from day 1; assay type: organism-based; conditions: in vivo, 120 h
[22] = Inhibition of C57BL/6 mouse effector T cells proliferation at 500 nM after 72 hrs in absence of regulatory T cells by CFSE dye based flow cytometric assay relative to control
[23] = Toxicity in ip dosed C57BL/6 mouse administered for 5 days/week for two cycles; assay type: organism-based; conditions: in vivo

Cn1c(Sc2ccc(C(=O)NO)cc2)nnc1-c1cccs1
fold change (FC) [1]: > 1.5
Activity [2]: Non-Toxic
Activity [3]: -2%
Activity [4]: Non-Toxic
Activity [5]: 3.5%
Activity [6]: 2.8%
remaining at 4 h, 100 µM [7]: 100%
Ratio IC50 [8]: 326
Ratio IC50 [9]: 99
Ratio IC50 [10]: 343
fold change (FC) [11]: 3
Activity [12]: Non-Toxic
IC50 [13]: 26.6 µM
Cmax [14]: 144 ng/mL
Ratio IC50 [15]: 132
Drug uptake [16]: Bld
remaining at […], 5 µM [17]: 95%
inhibition at 72 h, 1 µM [18]: < 5%
AUC at 6 h [19]: 123 ng·h/mL
Activity [20]: -11%
Activity [21]: Non-Toxic
inhibition at 72 h, 0.5 µM [22]: < 0.5%
MTD at 120 h [23]: < 30 mg/kg

From ChEMBL document CHEMBL4414648, “Novel Benzohydroxamate-Based Potent and Selective Histone Deacetylase 6 (HDAC6) Inhibitors Bearing a Pentaheterocyclic Scaffold: Design, Synthesis, and Biological Evaluation” (J Med Chem, 2019)
